Patent publication US20260327191A1, “GSK3a INHIBITORS AND METHODS OF USE THEREOF” (Blueprint Medicines Corporation, priority 2023, published 2026)
Read-outs that look alike come from different tables or passages of the source.

Experiments:
GSK3B [1] = target: T1, GSK3B (Homo sapiens, UniProt P49841); experiment: NanoBRET cellular target engagement assay, Nanoluc-GSK3B in HEK293 cells; type: cell-based; parameters: expressed in transfected cells; conditions: NanoBRET GSK3β IC50, HEK293 cells, tracer K-8, 2 hours, 37° C
T1 sequence (P49841 whole entry, the tested form may be a part): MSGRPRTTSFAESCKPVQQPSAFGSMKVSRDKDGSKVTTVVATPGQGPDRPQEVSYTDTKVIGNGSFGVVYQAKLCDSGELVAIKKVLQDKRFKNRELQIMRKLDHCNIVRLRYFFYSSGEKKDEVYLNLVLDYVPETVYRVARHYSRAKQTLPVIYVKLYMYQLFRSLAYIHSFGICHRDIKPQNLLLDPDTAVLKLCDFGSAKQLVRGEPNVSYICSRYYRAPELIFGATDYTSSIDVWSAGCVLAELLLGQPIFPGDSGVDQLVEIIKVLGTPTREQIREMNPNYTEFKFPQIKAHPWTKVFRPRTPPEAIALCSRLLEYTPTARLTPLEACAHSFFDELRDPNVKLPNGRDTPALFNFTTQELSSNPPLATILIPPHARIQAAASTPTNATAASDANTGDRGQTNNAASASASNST

GSK3B [2] = target: T1, GSK3B; experiment: In vitro enzymatic activity assay, GSK3β; type: biochemical; parameters: Full length human GSK3α or GSK3B expressed as N-terminal GST fusion proteins; GST (N); purchased Carna Biosciences (Japan); host or cells: baculovirus host; conditions: 1.0 mM ATP, 1.0 μM peptide substrate, 120 min, 25° C
GSK3A = target: T2, GSK3A (Homo sapiens, UniProt P49840); experiment: NanoBRET cellular target engagement assay, Nanoluc-GSK3A in HEK293 cells; type: cell-based; conditions: NanoBRET GSK3α IC50, HEK293 cells, tracer K-8, 2 hours, 37° C
T2 construct: expressed in transfected cells
T2 sequence (P49840 whole entry): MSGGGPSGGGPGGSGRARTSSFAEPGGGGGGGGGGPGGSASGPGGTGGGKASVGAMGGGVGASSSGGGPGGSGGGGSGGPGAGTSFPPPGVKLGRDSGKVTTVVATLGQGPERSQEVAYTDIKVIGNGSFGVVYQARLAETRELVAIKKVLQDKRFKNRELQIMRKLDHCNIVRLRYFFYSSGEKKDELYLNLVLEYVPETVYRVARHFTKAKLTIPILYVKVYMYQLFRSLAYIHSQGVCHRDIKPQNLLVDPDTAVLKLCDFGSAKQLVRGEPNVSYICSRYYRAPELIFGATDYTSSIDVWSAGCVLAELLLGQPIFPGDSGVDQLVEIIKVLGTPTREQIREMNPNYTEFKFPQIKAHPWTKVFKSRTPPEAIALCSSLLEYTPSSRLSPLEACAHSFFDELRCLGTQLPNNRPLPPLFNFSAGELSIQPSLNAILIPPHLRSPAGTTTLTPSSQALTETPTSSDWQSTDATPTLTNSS

human GSK3α = target: T3, human GSK3α (Homo sapiens, UniProt P49840); experiment: In vitro enzymatic activity assay, GSK3α; type: biochemical; conditions: 1.0 mM ATP, 1.0 μM peptide substrate, 120 min, 25° C
T3 construct: Full length human GSK3α or GSK3B expressed as N-terminal GST fusion proteins; GST (N); purchased Carna Biosciences (Japan); host or cells: baculovirus host
T3 sequence (P49840 whole entry, the tested form may be a part): as the sequence (P49840 whole entry) above

Row | Compound | IC50 (GSK3B [1]) [nM] | IC50 (GSK3B [2]; read-out: Enzyme GSK3β (IC50)) [nM] | IC50 (GSK3A) [nM] | IC50 (human GSK3α; read-out: Enzyme GSK3α (IC50)) [nM] | IC50 (GSK3B [2]; Enzyme GSK3β (IC50)) [nM] | IC50 (human GSK3α; Enzyme GSK3α (IC50)) [nM]
1 | Nc1ncn(-c2c(Cl)cc(C(F)(F)F)cc2Cl)c(=O)c1C(=O)Nc1cncc(CNCCO)c1 [Example 23, 4-amino-1-(2,6-dichloro-4-(trifluoromethyl)phenyl)-N-(5-(((2-hydroxyethyl)amino)methyl)pyridin-3-yl)-6-oxo-1,6-dihydropyrimidine-5-carboxamide] | 239 | 343 | 4.3 | 5 |  | 
2 | CCOc1cc(Cl)c(-n2cnc(N)c(C(=O)Nc3cncc(CNCCOC)c3)c2=O)c(Cl)c1 [Example 25, 4-amino-1-(2,6-dichloro-4-ethoxyphenyl)-N-(5-(((2-methoxyethyl)amino)methyl)pyridin-3-yl)-6-oxo-1,6-dihydropyrimidine-5-carboxamide] | 715 | 692 | 7.5 | 13.9 |  | 
3 | CCOc1cc(Cl)c(-n2cnc(N)c(C(=O)Nc3cncc(CNCCO)c3)c2=O)c(Cl)c1 [Example 26, 4-amino-1-(2,6-dichloro-4-ethoxyphenyl)-N-(5-(((2-hydroxyethyl)amino)methyl)pyridin-3-yl)-6-oxo-1,6-dihydropyrimidine-5-carboxamide] | 269 | 327 | 4.4 | 5.5 |  | 
4 | CCOc1cc(Cl)c(-n2cnc(N)c(C(=O)Nc3cnnc(C(N)=O)c3)c2=O)c(Cl)c1 [Example 28, 5-(4-amino-1-(2,6-dichloro-4-ethoxyphenyl)-6-oxo-1,6-dihydropyrimidine-5-carboxamido)pyridazine-3-carboxamide] | 699 | 320 | 9 | 9.6 |  | 
5 | CCOc1cc(C)c(-n2cnc(N)c(C(=O)Nc3cnnc(C(N)=O)c3)c2=O)c(C)c1 [Example 29, 5-(4-amino-1-(4-ethoxy-2,6-dimethylphenyl)-6-oxo-1,6-dihydropyrimidine-5-carboxamido)pyridazine-3-carboxamide] | 25000 |  | 79.2 |  | 3800 | 92.2
6 | COCc1cc(C)c(-n2cnc(N)c(C(=O)Nc3cnnc(C(N)=O)c3)c2=O)c(C)c1 [Example 30, 5-(4-amino-1-(4-(methoxymethyl)-2,6-dimethylphenyl)-6-oxo-1,6-dihydropyrimidine-5-carboxamido)pyridazine-3-carboxamide] | 15800 | 1950 | 72.2 | 63.9 |  | 
7 | Nc1ncn(-c2c(Cl)cccc2Cl)c(=O)c1C(=O)Nc1cncc([C@@H]2CCCN2)c1 [Example 40, (S)-4-amino-1-(2,6-dichlorophenyl)-6-oxo-N-(5-(pyrrolidin-2-yl)pyridin-3-yl)-1,6-dihydropyrimidine-5-carboxamide] | 431 | 418 | 5.8 | 10.1 |  | 
8 | Nc1ncn(-c2c(Cl)cc(OC(F)F)cc2Cl)c(=O)c1C(=O)Nc1cncc([C@@H]2CCCCN2)c1 [Example 46, (S)-4-amino-1-(2,6-dichloro-4-(difluoromethoxy)phenyl)-6-oxo-N-(5-(piperidin-2-yl)pyridin-3-yl)-1,6-dihydropyrimidine-5-carboxamide] | 395 | 489 | 7.3 | 10.5 |  | 
9 | Nc1ncn(-c2c(Cl)cc(Cl)cc2Cl)c(=O)c1C(=O)Nc1cncc([C@@H]2CCCCN2)c1 [Example 48, (S)-4-amino-6-oxo-N-(5-(piperidin-2-yl)pyridin-3-yl)-1-(2,4,6-trichlorophenyl)-1,6-dihydropyrimidine-5-carboxamide] | 298 | 343 | 4.7 | 5.2 |  | 
10 | Nc1ncn(-c2c(Cl)cc(C(F)F)cc2Cl)c(=O)c1C(=O)Nc1cncc([C@@H]2CCCN2)c1 [Example 55, (S)-4-amino-1-(2,6-dichloro-4-(difluoromethyl)phenyl)-6-oxo-N-(5-(pyrrolidin-2-yl)pyridin-3-yl)-1,6-dihydropyrimidine-5-carboxamide] | 483 | 430 | 6.5 | 9.1 |  | 
11 | Nc1ncn(-c2c(Cl)cc(C(F)F)cc2Cl)c(=O)c1C(=O)Nc1cncc([C@@H]2CCCCN2)c1 [Example 56, (S)-4-amino-1-(2,6-dichloro-4-(difluoromethyl)phenyl)-6-oxo-N-(5-(piperidin-2-yl)pyridin-3-yl)-1,6-dihydropyrimidine-5-carboxamide] | 273 | 323 | 4.8 | 5.7 |  | 
12 | CCNCc1cncc(NC(=O)c2c(N)ncn(-c3c(Cl)cc(COC)cc3Cl)c2=O)c1 [Example 60, 4-amino-1-(2,6-dichloro-4-(methoxymethyl)phenyl)-N-(5-((ethylamino)methyl)pyridin-3-yl)-6-oxo-1,6-dihydropyrimidine-5-carboxamide] | 200 | 334 | 3 | 6.5 |  | 
13 | COCc1cc(Cl)c(-n2cnc(N)c(C(=O)Nc3cncc([C@@H]4CCCCN4)c3)c2=O)c(Cl)c1 [Example 61, (S)-4-amino-1-(2,6-dichloro-4-(methoxymethyl)phenyl)-6-oxo-N-(5-(piperidin-2-yl)pyridin-3-yl)-1,6-dihydropyrimidine-5-carboxamide] | 284 | 466 | 3.7 | 6.4 |  | 
14 | COCc1cc(Cl)c(-n2cnc(N)c(C(=O)Nc3cncc(CNCCO)c3)c2=O)c(Cl)c1 [Example 63, 4-amino-1-(2,6-dichloro-4-(methoxymethyl)phenyl)-N-(5-(((2-hydroxyethyl)amino)methyl)pyridin-3-yl)-6-oxo-1,6-dihydropyrimidine-5-carboxamide] | 234 | 209 | 4.4 | 4.5 |  | 
15 | COCc1cc(Cl)c(-n2cnc(N)c(C(=O)Nc3cncc(CNC(C)C)c3)c2=O)c(Cl)c1 [Example 64, 4-amino-1-(2,6-dichloro-4-(methoxymethyl)phenyl)-N-(5-((isopropylamino)methyl)pyridin-3-yl)-6-oxo-1,6-dihydropyrimidine-5-carboxamide] | 489 | 621 | 6.5 | 11.7 |  | 

Results, then the compound that gave them:

Row | IC50 (GSK3B [1]) [nM] | IC50 (GSK3B [2]; read-out: Enzyme GSK3β (IC50)) [nM] | IC50 (GSK3A) [nM] | IC50 (human GSK3α; read-out: Enzyme GSK3α (IC50)) [nM] | IC50 (GSK3B [2]; Enzyme GSK3β (IC50)) [nM] | IC50 (human GSK3α; Enzyme GSK3α (IC50)) [nM] | Compound
16 | 268 | 344 | 3.7 | 6.5 |  |  | COc1cc(Cl)c(-n2cnc(N)c(C(=O)Nc3cncc([C@@H]4CCCCN4)c3)c2=O)c(Cl)c1 [Example 34, (S)-4-amino-1-(2,6-dichloro-4-methoxyphenyl)-6-oxo-N-(5-(piperidin-2-yl)pyridin-3-yl)-1,6-dihydropyrimidine-5-carboxamide]
17 | 230 | 282 | 3.6 | 4.6 |  |  | COc1cc(C)c(-n2cnc(N)c(C(=O)Nc3cccc(C4(N)CCC4)c3)c2=O)c(Cl)c1 [Example 38, 4-amino-N-(3-(1-aminocyclobutyl)phenyl)-1-((S)-2-chloro-4-methoxy-6-methylphenyl)-6-oxo-1,6-dihydropyrimidine-5-carboxamide]
18 | 365 | 384 | 6.6 | 8.5 |  |  | Cc1cc(Cl)c(-n2cnc(N)c(C(=O)Nc3cncc([C@@H]4CCCN4)c3)c2=O)c(Cl)c1 [Example 45, (S)-4-amino-1-(2,6-dichloro-4-methylphenyl)-6-oxo-N-(5-(pyrrolidin-2-yl)pyridin-3-yl)-1,6-dihydropyrimidine-5-carboxamide]
19 | 132 | 209 | 2.5 | 4.4 |  |  | NCc1cncc(NC(=O)c2c(N)ncn(-c3c(Cl)cc(OC4CC4)cc3Cl)c2=O)c1 [Example 52, 4-amino-N-(5-(aminomethyl)pyridin-3-yl)-1-(2,6-dichloro-4-cyclopropoxyphenyl)-6-oxo-1,6-dihydropyrimidine-5-carboxamide]
20 | 340 | 345 | 5.4 | 5.4 |  |  | Nc1ncn(-c2c(Cl)cc(C(F)F)cc2Cl)c(=O)c1C(=O)Nc1cccc([C@@H]2CCCN2)c1 [Example 54, (S)-4-amino-1-(2,6-dichloro-4-(difluoromethyl)phenyl)-6-oxo-N-(3-(pyrrolidin-2-yl)phenyl)-1,6-dihydropyrimidine-5-carboxamide]
21 | 217 | 302 | 3.1 | 5.1 |  |  | COCc1cc(Cl)c(-n2cnc(N)c(C(=O)Nc3cncc(C4(N)CCC4)c3)c2=O)c(Cl)c1 [Example 65, 4-amino-N-(5-(1-aminocyclobutyl)pyridin-3-yl)-1-(2,6-dichloro-4-(methoxymethyl)phenyl)-6-oxo-1,6-dihydropyrimidine-5-carboxamide]
22 | 374 | 318 | 5.8 | 6.7 |  |  | COc1cc(Cl)c(-n2cnc(N)c(C(=O)Nc3cncc([C@@H]4CCCN4)c3)c2=O)c(Cl)c1 [Example 73, (S)-4-amino-1-(2,6-dichloro-4-methoxyphenyl)-6-oxo-N-(5-(pyrrolidin-2-yl)pyridin-3-yl)-1,6-dihydropyrimidine-5-carboxamide]
